Data: article PMC12606464, “Investigating NFE2L1 activators for targeted protein aggregate clearance: a follow-up study” (RSC Medicinal Chemistry, 2025)
Peptide text beside a SMILES is read from it. * marks the point of attachment. Cbz = O=C(OCc1ccccc1)*

Tests used:
Assay type in all cases: cell-based, human
SNCA-EGFP = SNCA-EGFP degradation in SH-SY5Y cells
Protocol: This reporter is prone to aggregation because of its slow protein turnover. To assess compound efficacy, we measured the fluorescence signal of GFP-tagged synuclein within aggregates.
The GFP fluorescence signal was then normalized to that of the DMSO control and the cell number. The experiment was performed in at least five biological replicates. Statistical analysis was performed using paired t-tests with Holm–Šídák correction for multiple comparisons (α = […]
SH-SY5Y cells stably expressing SNCA-EGFP were seeded on a plate and allowed to […]
tadalafil (5 µM), or RUN compounds at a concentration of 1 µM or treated with an equivalent volume of DMSO dissolved in buffer as a vehicle control. The treatment was performed for 16 hours and then fluorescence was measured. The GFP signal intensity was normalized to both the DMSO control and the cell count.

IRE1/XBP1s = test: XBP1 endoplasmic reticulum stress reporter assay (CMV-XBP-GLuc); conditions: Figure S5; for Mean 2 (mean of log2-transformed values, treatment; DMSO = 0): N = 3; for Mean diff, DMSO vs. treatment (log2-transformed values): Dunnett's multiple comparisons test
From the text: Next, we investigated whether the selected RUN compounds activate the NFE2L1 transcriptional program without triggering the unfolded protein response (UPR), a crucial cellular process induced by the accumulation of unfolded proteins in the endoplasmic reticulum (ER), potentially leading to ER stress. To monitor this, an alternative reporter was used to assess the activation of IRE1/XBP1s.[47] IRE1 is a bifunctional serine/threonine kinase and endoribonuclease embedded in the ER membrane, playing a central role in UPR signaling. Its RNase activity facilitates the splicing of X-box binding protein 1 (XBP1) mRNA. The spliced XBP1 acts as a transcription factor, promoting the re-establishment of ER homeostasis by upregulating genes involved in the ER-associated degradation (ERAD) pathway.[48–50] The reporter contains Gaussia luciferase positioned out of frame downstream of the XBP1 splice site, ensuring that active luciferase translation occurs only in the presence of ER stress.[51,52] Cells transfected with this reporter were treated with RUN compounds at 1, 5, and 10 μM, and luciferase activity was measured.
Figure S5: Impact of RUN compounds on ER stress-induced activation of the XBP1 reporter.
HEK293 cells were transfected with the CMV-XBP-GLuc reporter plasmid and allowed to stabilize overnight. Following stabilization, the cells were treated with MG132 or various concentrations of the test compounds (1, 2, 3, 5, 7.5, and 10 µM) for 16 hours. The Gaussia luciferase signal, which reflects XBP1 mRNA splicing, was adjusted based on cell viability as measured by the alamarBlue assay. Data are represented as Geomean ± GeoSD of three independent experiments ( n = 3. Statistical comparison of MG132 and RUN compounds vs DMSO and RUN compounds vs MG132 was performed on log2-transformed values using two-way repeated-measures ANOVA with Geisser –Greenhouse correction, followed by Dunnett’s multiple comparisons test with individual variances computed for each comparison. Results of the analysis are shown in Supplementary Table S15. […]
GraphPad Prism (v 10.6.1).
2.8 XBP1-endoplasmic reticulum (ER) stress reporter assay
HEK293 cells were seeded in 6-well plates and incubated for 24 hours before being transfected with a plasmid containing the CMV-XBP-Gluc reporter using Lipofectamine 2000.(4) After 6 hours, the transfected cells were subsequently transferred to 384-well plates, stabilized overnight, and treated with the proteasome inhibitor and ER stress inducer MG132 and/or various concentrations of RUN compounds (1, 5, and 10 µM) or vehicle (DMSO) for 16 hours. Luciferase activity was normalized to cell viability, which was assessed using the alamarBlue assay. The results are expressed as the fold change compared with the DMSO control, with the experiment conducted in biological triplicate. […]

HEK293 cells = test: alamarBlue cytotoxicity assessment in HEK293 cells; conditions: HEK293, alamarBlue, 16 h; concentration not given
Protocol: Figure S2: Concentration-dependent cytotoxicity assessment of RUN compounds.
HEK293 cells were treated for 16 hours with increasing concentrations of RUN compounds (1.25 µM; 2.5 µM; 5; 7.5 and 10 µM) or DMSO (negative control). Cell viability was determined using the alamarBlue assay following the protocol of Riss.(1) Data are presented as means ± SD from three independent experiments (n = 3). Statistical analysis was done using repeated measures one-way ANOVA with Geisser–Greenhouse correction, followed by Dunnett’s multiple comparisons test. *p<0.05. Detailed results of the analysis are shown in […]
(1 picture or pasted object on this page, not shown here)
(§1) 2 Biology Experimental Procedures
(§2) Safety statement: No unexpected or unusually high safety hazards were encountered. […]
Cell lines were sourced from the ATCC (USA) and/or ECACC (UK), namely HCT116 (human colorectal carcinoma), ATCC CCL-247 (RRID:CVCL_0291), HEK-293 (human embryonic kidney), ATCC CRL-1573 (RRID:CVCL_0045), SH-SY5Y (human neuroblastoma), ATCC CRL-2266 (RRID:CVCL_0019). The characteristics of DDI2 knockout cells derived from HCT116 cells have been described previously (Sedlacek et al., 2025). All cell lines were tested for mycoplasma contamination. Most of the cell lines were cultured in Dulbecco's Modified Eagle Medium (DMEM) enriched with 10% fetal bovine serum (FBS) and 2 mM L-glutamine, under standard conditions of 37 °C with 5% CO₂. DNA transfection was performed with Lipofectamine 2000, following the manufacturer's instructions. Transgenic cells were then selected with either G418 (400 µg/mL) or hygromycin B (450 µg/mL), based on the selection marker encoded by the plasmid used. […]

NFE2L1 pathway = test: 3×PSMA4-ARE-LUC dual luciferase reporter assay in HEK293 cells; conditions: Homo sapiens; 5 μM, 16 h, HEK293, luminescence relative to DMSO-treated cells; read-out: NFE2L1 activation [5 μM]
From the text: In our previous work,[43] we developed a library of NFE2L1 stimulators using a cell-based luciferase reporter assay. This system was based on three tandem copies of the antioxidant response element (ARE) derived from the NFE2L1 target gene proteasome subunit alpha type-4 (3xPSMA4, PSMA4-ARE-LUC). It was designed to detect the proteasome “bounce-back” response induced by proteasome inhibitors such as MG132 or bortezomib.[22,43,45,46] The reporter assay was adapted to a 384-well format and used to evaluate a new set of RUN compounds designed around the structural framework of the RUN-47 activator. We focused on identifying compounds that increased the 3×PSMA4-ARE-LUC signal (Fig. 1A), while simultaneously assessing cytotoxicity (see the SI, Fig. S2). […] In contrast, thiourea- and urea-containing derivatives generally produced only weak to intermediate responses, rarely exceeding a fold change of 7.
Fig. 1 (A) Targeted library screening of RUN compounds using the 3×PSMA4-ARE-LUC dual reporter assay in HEK293 cells. Cells were exposed to RUN compounds (5 μM) for 16 hours, and luciferase activity was measured. Data are presented as the mean ± SD from three independent experiments (n = 3). Results are shown as a fold change in luminescence relative to DMSO-treated cells. Selected hit compounds are highlighted in distinct colours. (B) RUN-89 specifically activates the NFE2L1 pathway. The DDI2 knockout (KO) and parental (WT) HCT116 cells were transfected with the 3×PSMA4-ARE-LUC reporter and treated with 0.5 μM bortezomib (BTZ) and 5 μM RUN-89 for 16 hours. Data are presented as the Geomean ± GeoSD of three independent experiments (n = 3). Statistical analysis was performed on log2-transformed values using two-way repeated-measures ANOVA followed by Šídak's multiple comparison test. (C) RUN-89 selectively triggers downstream signaling events associated with NFE2L1 gene expression. HEK293 cells were transfected with lipid nanoparticles (LNPs) carrying siRNAs targeting NFE2L1 or NFE2L2. LNPs formulated with non-targeting siRNA served as a negative control. Following 24 hours of incubation, cells were treated with 7.5 μM RUN-89 or DMSO (vehicle) for an additional 16 hours. Expression of the proteasomal subunit gene PSMC4 was then quantified by RT-qPCR. Data are shown as the Geomean ± GeoSD from three independent biological replicates (n = 3). Log2-transformed data were analyzed using two-way repeated-measures ANOVA with the Geisser–Greenhouse correction, followed by Tukey's multiple comparison test with individual variances computed for each comparison. Additional results for NFE2L1, NFE2L2, PSMB7, and PSMD12 are presented in SI Fig. S10.
Figure S1: Concentration–response of luciferase cell-based assay (PSMA4-ARE-luc2P reporter) on treatment with RUN-81, RUN-89, and RUN-94. Concentration is plotted on the X-axis. Dose–response relationships were analyzed using a four-parameter logistic curve (4PL), or a bell-shaped dose-response curve, both with weighting 1/Y^2. Dotted lines represent 95% confidence bands. Calculated EC₅₀ values, curve parameters, and asymmetrical confidence intervals are summarized in the accompanying table . Data are presented as mean ± SD from four independent experiments (n=4).
as §1, §2
Most of the cell lines were cultured in Dulbecco's Modified Eagle Medium (DMEM) enriched with 10% fetal bovine serum (FBS) and 2 mM L-glutamine, under standard conditions of 37 °C with 5% CO₂. DNA transfection was performed with Lipofectamine 2000, following the manufacturer's instructions. Transgenic cells were then selected with either G418 (400 µg/mL) or hygromycin B (450 µg/mL), based on the selection marker encoded by the plasmid used. Cell viability was evaluated using the […]

[1] = SH-SY5Y, SNCA-EGFP degron, Figure S7

SMILES | Tox [% of ctrl.] (HEK293 cells) | fold induction at 5 µM (NFE2L1 pathway) | other results
CN1CC(=O)N2[C@H](c3ccc4c(c3)OCO4)c3[nH]c4ccccc4c3C[C@@H]2C1=O [tadalafil, reference compound] | – | – | EGFP-SNCA aggregation (GFP signal) (SNCA-EGFP; SH-SY5Y SNCA-EGFP, 16 h, RUN compounds 1 μM, PD169316 3 μM, tadalafil 5 μM): reduction; Geometric mean of ratios (paired t tests, Treatment vs Control = 100) (SNCA-EGFP; [1]): -20.51; Geometric mean, Treatment (Control = 100) (SNCA-EGFP; [1]): 79.49
CC(C)C[C@@H](C=O)NC(=O)[C@H](CC(C)C)NC(=O)[C@H](CC(C)C)NC(=O)OCc1ccccc1 [MG132] (Cbz-Leu-Leu-Leu-aldehyde) | – | – | Mean 2 (mean of log2-transformed values, treatment; DMSO = 0) (IRE1/XBP1s; 1 µM): 2.106; Mean 2 (mean of log2-transformed values, treatment; DMSO = 0) (IRE1/XBP1s; 5 µM): 2.725; Mean 2 (mean of log2-transformed values, treatment; DMSO = 0) (IRE1/XBP1s; 10 uM): 3.956; Mean diff, DMSO vs. treatment (log2-transformed values) (IRE1/XBP1s; DMSO vs. 1 µM): -2.106; Mean diff, DMSO vs. treatment (log2-transformed values) (IRE1/XBP1s; DMSO vs. 5 µM): -2.725; Mean diff, DMSO vs. treatment (log2-transformed values) (IRE1/XBP1s; DMSO vs. 10 uM): -3.956
COCCOCCOCC(=O)N1C/C(=C\c2ccc(OC)c(OC)c2)C(=O)/C(=C/c2ccc(OC)c(OC)c2)C1 [RUN-82] | 85% of ctrl. | 3.2 | –
COc1ccc(/C=C2\CC(NC(=O)CN(C)C)C/C(=C\c3ccc(OC)c(OC)c3)C2=O)cc1OC.O=C(O)C(F)(F)F (centres unmarked) [RUN-86] | 96% of ctrl. | 2 | –
COc1ccc(/C=C2\CN(C(=S)Nc3cccnc3)C/C(=C\c3ccc(OC)c(OC)c3)C2=O)cc1OC [RUN-73] | 84% of ctrl. | 1.9 | –
COCCOCCOCC(=O)NC1C/C(=C\c2ccc(OC)c(OC)c2)C(=O)/C(=C/c2ccc(OC)c(OC)c2)C1 (centres unmarked) [RUN-88] | 86% of ctrl. | 3.9 | –
COc1ccc(/C=C2\CC(NC(=O)CCN)C/C(=C\c3ccc(OC)c(OC)c3)C2=O)cc1OC (centres unmarked) [RUN-104] | 105% of ctrl. | 0.8 | –
COc1ccc(/C=C2\CC(NC(=O)[C@@H]3CCCN3)C/C(=C\c3ccc(OC)c(OC)c3)C2=O)cc1OC.O=C(O)C(F)(F)F (some centres unmarked) [RUN-96] | 93% of ctrl. | 2.2 | –
CCN(CC)CC(=O)NC1C/C(=C\c2ccc(OC)c(OC)c2)C(=O)/C(=C/c2ccc(OC)c(OC)c2)C1 (centres unmarked) [RUN-102] | 96% of ctrl. | 1.3 | –
